These results are taken from patent US6900331B2, “Derivatives of epothilone B and D and synthesis thereof” (University of Notre Dame, priority 2002, dated 2005).

As a reminder, the IC50 is the midpoint of a concentration-inhibition curve.

Assay [1] relates to non-small cell lung carcinoma cell line NCI-H460. Kind of assay: Cytotoxicity assay (SRB), NCI-H460. The format is cell-based, Human. The note with it: 3 days exposure, SRB staining. Here is the method: (§1) Cell lines and culture conditions: Human breast carcinoma cell line MCF-7, multi-drug resistant breast carcinoma cell line NCI/ADR, non-small cell lung carcinoma cell line NCI-H460 and glioma cell line SF-268 were obtained from the National Cancer Institute. All cell lines were maintained in RPMI-1640 medium (Gibco/BRL, Rockville, Md.) supplemented with 2 mM L-glutamine, 25 mM HEPES and 10% FBS (Hyclone, Logan, Utah). Cells were maintained in a humidified incubator at 37° C. in 5% CO2.
(§2) Cytoloxicity assays: Tumor cells were seeded in 100 μl at 5000 (MCF-7), 7500 (NCI/ADR), 5000 (NCI-H460) and 7500 (SF-268) cells per well in 96-well plates. Cells were allowed to adhere for 24 hours. Each compound ranging from 0.001 to 1000 nM in 100 μl was added to cells in triplicate wells. After 3 days, cells were fixed at 4° C. for 1 hour with 10% trichloroacetic acid and then stained with 0.2% sulforhodamine B (SRB)/1% acetic acid for 20 minutes at room temperature. The unbounded dye was rinsed away with 1% acetic acid, and the bounded SRB was then extracted with 200 μl of 10 mM Tris base. The absorbance was measured at 515 nm using a 96-well microtiter plate reader (Spectra Max 250, Molecular Devices). The IC50 values were calculated using a KaleidaGraph program. The experiments were performed twice.

In the next assay the test system is tumor cell. Kind of assay: Tumor cell growth assays. It is filed as cell-based. The note with it: fold as active as epothilone B.
The test system of the next assay is tubulin. Kind of assay: Preliminary tubulin polymerization activity. The format is biochemical. The note with it: preliminary biological investigations.
Assay [2] has as its system multi-drug resistant breast carcinoma cell line NCI/ADR. Kind of assay: Cytotoxicity assay (SRB), NCI/ADR. The format is cell-based, Human. The note with it: 3 days exposure, SRB staining. Here is the method:
as §1, §2

Assay [3] has as its system Human breast carcinoma cell line MCF-7. Kind of assay: Cytotoxicity assay (SRB), MCF-7. The note with it: 3 days exposure, SRB staining. The format is cell-based. The method, then: as §1, §2
The subject of another assay is glioma cell line SF-268. Kind of assay: Cytotoxicity assay (SRB), SF-268. The note with it: 3 days exposure, SRB staining. It is filed as cell-based, Human. Here is the method:
as §1, §2
Background: The SRB assay estimates cell density from bound dye.

For `C/C(=C\c1csc(C)n1)[C@H]1OC(=O)C[C@H](O)C(C)(C)C(=O)[C@H](C)[C@@H](O)[C@@H](C)CCC[C@@]2(C)O[C@H]2[C@@H]1C` [Compound 3, (R)-C14-methyl epothilone B], the IC50 in assay [1] was 3 nM; in assay [2] it was 23 nM; in assay [3] it was 3 nM; with glioma cell line SF-268, 3 nM. Also, in the assay on tumor cell, the “activity relative to epothilone B itself” value is given as above 2 ×. Besides, in the assay on tubulin, the tubulin polymerization activity entry is listed as “significant”.
As to `C/C(=C\c1csc(C)n1)[C@H]1OC(=O)C[C@H](O)C(C)(C)C(=O)[C@H](C)[C@@H](O)[C@@H](C)CCC[C@@]2(C)O[C@H]2[C@H]1C` [Compound 4, (S)-C14-methyl epothilone B], the IC50 (in assay [1]; in assay [2]; in assay [3]; in the assay on glioma cell line SF-268) was above 1000 nM in each case.
Consider `C/C1=C/[C@H](C)[C@@H](/C(C)=C/c2csc(C)n2)OC(=O)C[C@H](O)C(C)(C)C(=O)[C@H](C)[C@@H](O)[C@@H](C)CCC1` [Compound 12, (S)-C14-methyl epothilone D], for which the IC50 in assay [1] (Homo sapiens, NCI-H460, 72 h) turned out to be 42 nM; in assay [2] (Homo sapiens, NCI/ADR-RES, 72 h) it was 238 nM; in assay [3] (Homo sapiens, MCF7, 72 h) it was 35 nM; with glioma cell line SF-268 (Homo sapiens, SF-268, 72 h), 42 nM. Also, in the assay with tubulin, the tubulin polymerization activity result is reported as “significant”.
With `C/C1=C/[C@@H](C)[C@@H](/C(C)=C/c2csc(C)n2)OC(=O)C[C@H](O)C(C)(C)C(=O)[C@H](C)[C@@H](O)[C@@H](C)CCC1` [Compound 13, (R)-C14-methyl epothilone D], the IC50 (in assay [1]; in assay [2]; in assay [3]; in the assay on glioma cell line SF-268) was above 1000 nM in each case. Moreover, in the assay on tubulin, the tubulin polymerization activity entry is “relatively weak activity”.
In the case of `C/C1=C/C[C@@H](/C(C)=C/c2csc(C)n2)OC(=O)C[C@H](O)C(C)(C)C(=O)[C@H](C)[C@@H](O)[C@@H](C)CCC1` [Epothilone D, reference compound], the IC50 was found to be 20 nM in assay [1], 26 nM in assay [2], 5 nM in assay [3] and 7 nM in the assay with glioma cell line SF-268.
